According to US20230381142A1, “ANTILEISHMANIAL COMPOUNDS, COMPOSITIONS AND USE THEREOF” (TRUSTEES OF BOSTON UNIVERSITY, priority 2022, published 2023):
In brackets after ≈: the same amount, converted by molar mass.

Columns and labels:
[1] = Kinetic aqueous solubility by CLND; type: physicochemical; details: kinetic from dmso stock, high-throughput CLND
Method: Solubility of compounds using ChemiLuminescent Nitrogen Detection (CLND) was measured as described. Solubility of compounds using Charged Aerosol Detection (CAD) was measured as described. Solubility of solid compounds in Fasted Simulated Intestinal Fluid (FaSSIF) was measured as described.

[2] = tested on: HepG2 cells; test: HepG2 cytotoxicity; type: cell-based; details: Homo sapiens; toxicity against HepG2 cells
[3] = biological target: human serum albumin (Homo sapiens, UniProt P02768); test: Human serum albumin (HSA) binding, chromatographic; type: in vitro ADME
Method: The percentage of compound bound to human serum albumin was measured using a chromatographic method as described. Briefly, each compound was assayed on an immobilized HSA column and gradient retention times measured, with chromatographic peak detection by UV. Each retention time was then converted to a % HSA bound value using a calibration set of compounds with a known % HSA binding.

[4] = Artificial membrane permeability (AMP); type: in vitro ADME; details: PAMPA, pH 7.4
Outline: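 Passive permeation through 1.8% phosphatidylcholine in 1% decane membrane, 50 mM phosphate buffer pH 7.4 on donor and receiver sides. After 45 min pre-shaking, compounds incubated 3 h at room temperature with shaking, in duplicate; donor and receiver solutions quantified by LC/MS.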

[5] = tested on: L. donovani intracellular amastigotes infecting THP-1 macrophages; test: GSK intramacrophage L. donovani assay (LD AMMAC, inMac; Assay Conditions C); type: cell-based; details: Leishmania donovani; for IC50: THP-1; for EC50: growth inhibition of L. donovani intracellular amastigotes infecting THP-1 macrophages, read-out: LD AMMAC EC50
Outline: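 L. donovani amastigotes within THP-1 macrophages; EC50 based on average intracellular amastigotes per infected cell (AMMAC). Infected-cell percentage (INFCELL) and host-cell number (MAC) also read, the latter as toxicity output.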

[6] = Property forecast index (PFI = ChromLogD7.4 + aromatic rings); type: physicochemical
[7] = tested on: host THP-1 macrophages; test: GSK inMac assay, host cell toxicity readout (LD MAC); type: cell-based, human; details: Homo sapiens, THP-1, cytotoxicity against host THP-1 macrophages
Outline: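 Intramacrophage L. donovani assay in THP-1 macrophages; host toxicity taken from host cell number per well, giving MAC EC50. Run alongside amastigote-per-cell and infected-cell readouts in the same wells.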

[8] = tested on: L. donovani intracellular amastigotes in B10R cells; test: UCSD L. donovani infection assay (Assay Conditions D); type: cell-based; details: Leishmania donovani
Outline: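 B10R cells (300/well) infected with stationary-phase L. donovani WT promastigotes at 20 parasites/cell in DMEM high-glucose, 5% FBS, with compounds 72 h at 37° C., 5% CO2. Formaldehyde-fixed, DAPI-stained, imaged by high-content microscopy; 10-point 2-fold dilutions (screen at 10 μM) gave EC50 and host CC50.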

[9] = aqueous medium (not further specified)

Sequence of human serum albumin (P02768 25-609): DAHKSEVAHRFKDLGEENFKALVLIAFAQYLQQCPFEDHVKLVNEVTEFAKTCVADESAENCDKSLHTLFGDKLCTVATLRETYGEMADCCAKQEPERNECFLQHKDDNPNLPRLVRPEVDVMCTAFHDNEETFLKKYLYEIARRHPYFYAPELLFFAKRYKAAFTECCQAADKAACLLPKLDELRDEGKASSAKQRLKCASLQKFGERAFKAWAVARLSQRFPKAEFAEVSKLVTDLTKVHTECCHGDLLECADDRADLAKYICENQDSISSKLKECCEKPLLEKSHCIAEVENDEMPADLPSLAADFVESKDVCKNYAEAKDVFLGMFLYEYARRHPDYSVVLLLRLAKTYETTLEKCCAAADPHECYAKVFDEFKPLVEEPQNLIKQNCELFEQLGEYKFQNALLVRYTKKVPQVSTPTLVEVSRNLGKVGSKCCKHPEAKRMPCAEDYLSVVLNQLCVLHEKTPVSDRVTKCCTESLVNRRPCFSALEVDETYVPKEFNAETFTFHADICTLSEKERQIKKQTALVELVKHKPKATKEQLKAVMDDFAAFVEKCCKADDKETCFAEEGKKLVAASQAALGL

Structure (SMILES) | solubility ([1]; aqueous (not further specified)) [µM] | EC50 [2] [µM] | HSA Binding [3] [%] | Papp at 3 h [4] [nm/s] | IC50 [5] [µM] | EC50 [5] [µM] | PFI [6] | EC50 [7] [µM] | IC50 [8] [µM] | solubility [1, 9] [µM]
CC(C)Cc1n[nH]c2c1C(c1ccc(F)cc1)N(c1ccc(N(C)C)cc1)C2=O (stereo not drawn) [Compound 21, 5-(4-(dimethylamino)phenyl)-4-(4-fluorophenyl)-3-isobutyl-4,5-dihydropyrrolo[3,4-c]pyrazol-6(1H)-one] | 33 (≈ 13 µg/mL) | 50.1 | 96.1 | 160 | 1 | 1 | 9.0 | 39.8 | 0.2 | –
CC(C)Cc1n[nH]c2c1C(c1ccc(F)cc1)N(CCN1CCCC1)C2=O (stereo not drawn) [Compound 39] | – | > 100 | 76.7 | 230 | 15.9 | 15.8 | 5.3 | > 50 | 10.4 | ≥ 433
COc1ccc(N2C(=O)c3[nH]nc(CC(C)C)c3C2c2cccc(OC)c2)cc1 (stereo not drawn) [Compound 61] | – | 63.1 | 95 | 290 | – | 4 | 8.4 | 20 | – | 63 (≈ 24.7 µg/mL)
COc1ccc(N2C(=O)c3[nH]nc(CC(C)C)c3C2c2cccc(C(F)(F)F)c2)cc1 (stereo not drawn) [Compound 62] | – | 50.1 | 97.8 | 220 | – | 6.3 | 8.9 | 15.8 | – | 20 (≈ 8.59 µg/mL)
COc1ccc(N2C(=O)c3[nH]nc(CC(C)C)c3C2c2ccc(F)cc2F)cc1 (stereo not drawn) [Compound 63] | – | 63.1 | 96.1 | 140 | – | 2 | 8.8 | 25.1 | – | 52 (≈ 20.7 µg/mL)
COc1ccc(N2C(=O)c3[nH]nc(CC(C)C)c3C2c2ccc(F)cc2C)cc1 (stereo not drawn) [Compound 64, 4-(4-fluoro-2-methylphenyl)-3-isobutyl-5-(4-methoxyphenyl)-4,5-dihydropyrrolo[3,4-c]pyrazol-6(1H)-one] | – | 50.1 | 97.2 | 110 | – | 0.5 | 8.8 | 25.1 | – | 43 (≈ 16.9 µg/mL)
COc1ccc(N2C(=O)c3[nH]nc(CC(C)C)c3C2c2ccc(F)c(F)c2)cc1 (stereo not drawn) [Compound 65, 4-(3,4-difluorophenyl)-3-isobutyl-5-(4-methoxyphenyl)-4,5-dihydropyrrolo[3,4-c]pyrazol-6(1H)-one] | – | 50.1 | 96.2 | 140 | – | 5 | 8.7 | 25.1 | – | 44 (≈ 17.5 µg/mL)
COc1ccc(N2C(=O)c3[nH]nc(CC(C)C)c3C2c2c(Cl)cccc2Cl)cc1 (stereo not drawn) [Compound 66] | – | 6.3 | 97.1 | 330 | – | 1 | 9.1 | 2.5 | – | 6 (≈ 2.58 µg/mL)
COc1ccc(N2C(=O)c3[nH]nc(CC(C)C)c3C2C2CCN(Cc3ccccc3)CC2)cc1 (stereo not drawn) [Compound S1] | – | 63.1 | 94.8 | 290 | – | 15.8 | 9.0 | 20 | – | 188 (≈ 86.2 µg/mL)
COc1ccc(N2C(=O)c3[nH]nc(CC(C)C)c3C2c2cccs2)cc1 (stereo not drawn) [Compound S2] | – | > 100 | 95.9 | 300 | – | 7.9 | 8.2 | > 50 | – | 8 (≈ 2.94 µg/mL)
COc1ccc(N2C(=O)c3[nH]nc(CC(C)C)c3C2c2cncs2)cc1 (stereo not drawn) [Compound S4] | – | > 100 | 89.3 | 320 | – | 15.8 | 6.5 | > 50 | – | ≥ 534
COc1ccc(N2C(=O)c3[nH]nc(CC(C)C)c3C2c2nccs2)cc1 (stereo not drawn) [Compound S5] | – | > 100 | 89.5 | 420 | – | 20 | 7.2 | > 50 | – | 143 (≈ 52.7 µg/mL)
COc1ccc(N2C(=O)c3[nH]nc(CC(C)C)c3C2c2ccncc2)cc1 (stereo not drawn) [Compound S6] | – | > 100 | 87.9 | 230 | – | > 50 | 6.3 | > 50 | – | ≥ 432
COc1ccc(N2C(=O)c3[nH]nc(CC(C)C)c3C2c2ccccn2)cc1 (stereo not drawn) [Compound S7] | – | > 100 | 86.8 | 420 | – | 31.6 | 7.1 | > 50 | – | ≥ 450
COc1ccc(N2C(=O)c3[nH]nc(CC(C)C)c3C2c2ccncn2)cc1 (stereo not drawn) [Compound S8] | – | > 100 | 76.8 | 340 | – | > 50 | 6.3 | > 50 | – | 273 (≈ 99.2 µg/mL)
COc1ccc(N2C(=O)c3[nH]nc(CC(C)C)c3C2c2ccnnc2)cc1 (stereo not drawn) [Compound S9] | – | > 100 | 70.5 | 50 | – | > 50 | 5.5 | > 50 | – | ≥ 340
COc1ccc(N2C(=O)c3[nH]nc(CC(C)C)c3C2c2cncc(OC)c2)cc1 (stereo not drawn) [Compound S11] | – | > 100 | 91.2 | 470 | – | 10 | 6.6 | 20 | – | 386 (≈ 151 µg/mL)
COc1ccc(N2C(=O)c3[nH]nc(CC(C)C)c3C2c2ccc(OC)nc2)cc1 (stereo not drawn) [Compound S12] | – | > 100 | 92.6 | 440 | – | > 50 | 7.5 | > 50 | – | 272 (≈ 107 µg/mL)
COc1ccc(N2C(=O)c3[nH]nc(CC(C)C)c3C2c2ccc(F)c(C)n2)cc1 (stereo not drawn) [Compound S13] | – | > 100 | 94.4 | 380 | – | 12.6 | 8.3 | > 50 | – | 305 (≈ 120 µg/mL)
COc1ccc(N2C(=O)c3[nH]nc(CC(C)C)c3C2c2cc(F)nc(F)c2)cc1 (stereo not drawn) [Compound S14] | – | > 100 | 93 | 540 | – | > 50 | 7.4 | > 50 | – | 367 (≈ 146 µg/mL)
